Columns and labels:
[1] = target: PLA2 obtained from cobra venom (N. naja naja) (Naja naja, UniProt P15445); type: biochemical
[2] = target: phospholipase A2 obtained from cobra venom (Naja naja naja) (Naja naja, UniProt P15445); type: biochemical
[3] = Stability of p-nitrophenyl esters in solvents; type: physicochemical; conditions: polar solvents such as alcohols
Procedure: Pure samples of 1a-1e were obtained after HPLC chromatography using anhydrous MeOH to elute the lipid from a Brownlee C18 column. […] Storage of these compounds at -10° C. in CHCl3 or CH2 Cl2 greatly enhances the stability. Therefore, HPLC-purified SIBLINKS were immediately transferred to CHCl3 for storage. In an aqueous environment, the stability is enhanced when incorporated into vesicles or Triton micelles. The following are representative spectral data for lipids 1b, 1c, 1d and 1e containing a decanoyl (C10) chain moiety at the sn-1 position.

[4] = target: phospholipase A2 obtained from cobra venom (Naja naja, UniProt P15445); type: biochemical
[5] = target: cobra venom phospholipase A2 (PLA2) (Naja naja, UniProt P15445); conditions: cited from earlier work
[6] = target: bee venom phospholipase A2 (PLA2) (Apis mellifera, UniProt P00630); conditions: cited from earlier work
[7] = in vivo; cited from earlier work
[8] = system: PLA2; conditions: modification of lysine residues; cited from earlier work

Chain of phospholipase A2 obtained from cobra venom (P15445 whole entry, looked up): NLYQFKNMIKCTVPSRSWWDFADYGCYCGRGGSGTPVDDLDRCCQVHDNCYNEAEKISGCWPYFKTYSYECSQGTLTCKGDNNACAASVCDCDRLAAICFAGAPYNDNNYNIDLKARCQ
Chain of PLA2 obtained from cobra venom (N. naja naja) (P15445 whole entry, looked up): as above
Chain of phospholipase A2 obtained from cobra venom (Naja naja naja) (P15445 whole entry, looked up): as above
Chain of cobra venom phospholipase A2 (PLA2) (P15445 whole entry, looked up): as above
Chain of bee venom phospholipase A2 (PLA2) (P00630 34-167 limits assumed): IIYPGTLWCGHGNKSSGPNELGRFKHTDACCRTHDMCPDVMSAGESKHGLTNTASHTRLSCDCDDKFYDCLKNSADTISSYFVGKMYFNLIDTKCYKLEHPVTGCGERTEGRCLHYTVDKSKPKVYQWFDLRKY

| Compound | V, initial velocity for release of p-nitrophenol [1] [µmol/min/mg] | stability of p-nitrophenyl ester [3] | efficiency of enzymatic deactivation (suicide inhibition) [4] | effect on P of raising preincubation temperature [4] | effect on inactivation time course of raising preincubation temperature [4] | also measured |
| --- | --- | --- | --- | --- | --- | --- |
| CCCCCCCCCC(=O)OC[C@H](COP(=O)([O-])OCC[N+](C)(C)C)OC(=O)CCCC(=O)Oc1ccc([N+](=O)[O-])cc1 [compound 1a] | 155 | especially prone to hydrolysis |  |  |  | change of hydrolysis rate with Triton/phospholipid surface ratio [2]: diminishes three-fold; concentration of substrate required to reach half saturation, versus DPPC [2]: lower concentration of substrate |
| CCCCCCCCCC(=O)OC[C@H](COP(=O)([O-])OCC[N+](C)(C)C)OC(=O)CC(C)(C)C(=O)Oc1ccc([N+](=O)[O-])cc1 [1e] | 0.005 |  | more efficient suicide inhibitors |  |  |  |
| CCCCCCCCCC(=O)OC[C@H](COP(=O)([O-])OCC[N+](C)(C)C)OC(=O)CC(C)(C)CC(=O)Oc1ccc([N+](=O)[O-])cc1 [1c] | 0.002 |  | more efficient suicide inhibitors |  |  |  |
| CC1=C(CC/C(C)=C/CCC2=CC[C@H](C3=CC(=O)O[C@H]3O)O[C@H]2O)C(C)(C)CCC1 [manoalide] |  |  |  |  |  | inhibition of cobra venom PLA2 [5]: inhibitor of both cobra and bee venom phospholipase A2; inhibition of bee venom PLA2 [6]: inhibitor of both cobra and bee venom phospholipase A2; anti-inflammatory activity [7]: anti-inflammatory activity in vivo; mode of PLA2 inactivation [8]: time-dependent irreversible inactivation |
| CCCCCCCCCC(=O)OC[C@H](COP(=O)([O-])OCC[N+](C)(C)C)OC(=O)CCC(C)(C)C(=O)Oc1ccc([N+](=O)[O-])cc1 [compound 1b] | 0.11 |  | more efficient suicide inhibitors | did increase P | little effect |  |
| CCCCCCCCCC(=O)OC[C@H](COP(=O)([O-])OCC[N+](C)(C)C)OC(=O)CCC(=O)Oc1ccc([N+](=O)[O-])cc1 [1d] | 0.6 | especially prone to hydrolysis | less efficient, but is processed faster | did increase P | little effect | concentration below which mixed micelles do not inhibit [4]: 20 NM; ratio of inhibitor/PLA2 needed to observe inhibition [4]: > 40 |

From US5308766A (priority 1990, dated 1994)
